Results from publication PMC3260308, “Substrate Specificity within a Family of Outer Membrane Carboxylate Channels” (PLoS Biology, 2012).
Read-outs that look alike come from different tables or passages of the source.

How the values were obtained:
OccK1 (formerly OpdK) = molecular target: T1, OccK1 (formerly OpdK) (Pseudomonas aeruginosa, UniProt Q9HUR5); assay: competition of radiolabelled uptake in total membrane vesicles; assay type: biochemical; details: vs 0.5 uM 3H-benzoate, 5 uM unlabelled compound, 10 mM HEPES pH 7.0, 25 C, 10 min
T1 construct: pB22, N-terminal hexa-histidine tag; expressed in E. coli BL21 omp8, total membrane vesicles; purified protein for crystals
T1 sequence (Q9HUR5 28-417): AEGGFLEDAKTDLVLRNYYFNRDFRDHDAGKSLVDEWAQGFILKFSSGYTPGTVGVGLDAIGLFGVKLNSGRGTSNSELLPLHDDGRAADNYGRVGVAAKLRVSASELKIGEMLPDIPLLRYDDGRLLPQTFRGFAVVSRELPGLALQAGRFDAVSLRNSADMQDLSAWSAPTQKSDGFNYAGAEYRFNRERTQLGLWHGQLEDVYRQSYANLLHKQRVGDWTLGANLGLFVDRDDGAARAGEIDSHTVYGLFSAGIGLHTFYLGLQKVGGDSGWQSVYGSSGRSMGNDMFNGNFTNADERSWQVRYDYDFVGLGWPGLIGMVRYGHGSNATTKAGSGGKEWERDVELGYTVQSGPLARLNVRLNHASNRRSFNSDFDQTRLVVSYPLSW
Text: competition of radiolabelled uptake in total membrane vesicles on OccK1 (formerly OpdK)

OccD1 (formerly OprD) [1] = molecular target: T2, OccD1 (formerly OprD) (Pseudomonas aeruginosa, UniProt P32722); assay type: biochemical; details: vs 0.25 uM 14C-arginine, 2.5 uM unlabelled compound, 10 mM HEPES pH 7.0, 25 C, 15 min
T2 construct: pB22, N-terminal hexa-histidine tag kept in vesicles; expressed in porin-deficient E. coli BL21 omp8; total membrane vesicles (purified protein for liposome swelling)
Text: competition of radiolabelled uptake in total membrane vesicles on OccD1 (formerly OprD)

OccD3 (formerly OpdP) = molecular target: T3, OccD3 (formerly OpdP) (Pseudomonas aeruginosa, UniProt Q9HVS0); assay: radiolabelled uptake in total membrane vesicles; assay type: biochemical; details: 0.25 uM 14C-arginine, 15 min, 10 mM HEPES pH 7.0, 25 C; labelled compound
T3 construct: pB22, N-terminal hexa-histidine tag; expressed in E. coli BL21 omp8, total membrane vesicles
T3 sequence (Q9HVS0 26-484): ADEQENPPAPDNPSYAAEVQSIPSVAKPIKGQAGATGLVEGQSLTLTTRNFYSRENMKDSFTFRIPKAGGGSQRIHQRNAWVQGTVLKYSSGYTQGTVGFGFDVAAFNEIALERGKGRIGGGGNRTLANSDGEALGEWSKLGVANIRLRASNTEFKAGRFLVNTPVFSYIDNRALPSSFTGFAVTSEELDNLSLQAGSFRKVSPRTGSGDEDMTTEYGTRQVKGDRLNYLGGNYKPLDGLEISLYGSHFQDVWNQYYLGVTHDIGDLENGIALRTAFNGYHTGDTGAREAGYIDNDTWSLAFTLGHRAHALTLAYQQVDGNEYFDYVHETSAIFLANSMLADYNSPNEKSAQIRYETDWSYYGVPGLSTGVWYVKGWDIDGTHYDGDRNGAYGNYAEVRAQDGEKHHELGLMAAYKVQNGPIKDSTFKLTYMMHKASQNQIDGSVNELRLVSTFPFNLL

OccD2 (formerly OpdC) = molecular target: T4, OccD2 (formerly OpdC) (Pseudomonas aeruginosa, UniProt Q9I6X0); assay: radiolabelled uptake in total membrane vesicles; assay type: biochemical; details: 0.25 uM 14C-arginine, 15 min, 10 mM HEPES pH 7.0, 25 C; labelled compound
T4 construct: pB22, N-terminal hexa-histidine tag; expressed in E. coli BL21 omp8, total membrane vesicles
T4 sequence (Q9I6X0 23-444): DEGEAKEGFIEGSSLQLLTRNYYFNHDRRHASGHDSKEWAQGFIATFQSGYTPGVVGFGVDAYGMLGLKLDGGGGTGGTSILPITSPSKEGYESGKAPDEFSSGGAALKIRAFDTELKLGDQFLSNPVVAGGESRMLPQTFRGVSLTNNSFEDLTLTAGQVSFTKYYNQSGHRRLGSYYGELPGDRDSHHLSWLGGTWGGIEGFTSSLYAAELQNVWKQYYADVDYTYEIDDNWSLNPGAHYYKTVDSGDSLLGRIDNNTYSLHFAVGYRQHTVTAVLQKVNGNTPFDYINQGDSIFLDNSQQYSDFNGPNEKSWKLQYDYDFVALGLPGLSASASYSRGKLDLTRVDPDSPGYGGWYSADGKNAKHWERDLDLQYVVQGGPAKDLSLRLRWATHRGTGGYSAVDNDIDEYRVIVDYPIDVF

OccK2 = molecular target: T5, OccK2 (Pseudomonas aeruginosa, UniProt Q9I6P8); assay: competition of radiolabelled uptake in total membrane vesicles; assay type: biochemical; details: vs 0.5 uM 3H-glucuronate, 5 uM unlabelled compound, 10 mM HEPES pH 7.0, 25 C, 10 min
T5 construct: gene PA0240; pB22, N-terminal hexa-histidine tag; expressed in E. coli BL21 omp8, total membrane vesicles
T5 sequence (Q9I6P8 25-421): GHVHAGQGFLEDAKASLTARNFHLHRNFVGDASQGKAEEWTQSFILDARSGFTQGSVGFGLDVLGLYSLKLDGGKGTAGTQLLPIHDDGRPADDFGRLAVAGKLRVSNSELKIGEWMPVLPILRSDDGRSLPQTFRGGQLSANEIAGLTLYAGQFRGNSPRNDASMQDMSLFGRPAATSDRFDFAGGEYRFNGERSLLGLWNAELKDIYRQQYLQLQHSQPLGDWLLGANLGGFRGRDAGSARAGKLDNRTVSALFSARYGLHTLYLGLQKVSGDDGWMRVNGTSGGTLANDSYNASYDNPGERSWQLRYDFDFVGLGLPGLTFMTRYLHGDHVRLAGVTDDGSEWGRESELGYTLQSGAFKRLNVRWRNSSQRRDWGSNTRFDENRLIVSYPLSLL
Text: competition of radiolabelled uptake in total membrane vesicles on OccK2

OccK3 [2] = molecular target: T6, OccK3 (Pseudomonas aeruginosa, UniProt Q9I202); assay: competition of pyroglutamate uptake in membrane vesicles; liposome swelling; assay type: biochemical; details: 10-fold excess over radiolabelled pyroglutamate, pH 7.0; uptake confirmed by liposome swelling
T6 construct: gene opdO; pB22, N-terminal hexa-histidine tag; expressed in E. coli BL21 omp8, total membrane vesicles; purified protein for liposome swelling
T6 sequence (Q9I202 26-409): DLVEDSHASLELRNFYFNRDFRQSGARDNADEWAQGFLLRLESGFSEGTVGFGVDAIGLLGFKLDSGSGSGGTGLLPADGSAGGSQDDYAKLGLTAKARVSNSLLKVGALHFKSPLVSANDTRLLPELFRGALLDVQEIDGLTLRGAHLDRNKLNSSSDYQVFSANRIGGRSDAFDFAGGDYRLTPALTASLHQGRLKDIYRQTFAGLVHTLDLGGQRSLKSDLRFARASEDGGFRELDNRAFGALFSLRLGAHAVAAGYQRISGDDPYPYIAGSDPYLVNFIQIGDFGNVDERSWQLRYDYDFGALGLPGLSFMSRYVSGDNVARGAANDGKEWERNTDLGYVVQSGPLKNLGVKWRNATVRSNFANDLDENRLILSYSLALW

OccD1 (formerly OprD) [3] = molecular target: T2, OccD1 (formerly OprD); assay: competition of arginine uptake in membrane vesicles; liposome swelling; assay type: biochemical; details: 10-fold excess over 0.25 uM 14C-arginine, pH 7.0, 25 C; uptake confirmed by liposome swelling
OccD1 (formerly OprD) [4] = molecular target: T2, OccD1 (formerly OprD); assay: competition of arginine uptake in membrane vesicles; assay type: biochemical; details: 10-fold excess over 0.25 uM 14C-arginine, pH 7.0, 25 C
OccK7 = molecular target: T7, OccK7 (Pseudomonas aeruginosa, UniProt Q9I4U9); assay: competition of benzoate uptake in membrane vesicles; assay type: biochemical; details: 10-fold excess over radiolabelled benzoate, pH 7.0
T7 construct: gene PA1025; pB22, N-terminal hexa-histidine tag; expressed in E. coli BL21 omp8, total membrane vesicles
T7 sequence (Q9I4U9 23-416): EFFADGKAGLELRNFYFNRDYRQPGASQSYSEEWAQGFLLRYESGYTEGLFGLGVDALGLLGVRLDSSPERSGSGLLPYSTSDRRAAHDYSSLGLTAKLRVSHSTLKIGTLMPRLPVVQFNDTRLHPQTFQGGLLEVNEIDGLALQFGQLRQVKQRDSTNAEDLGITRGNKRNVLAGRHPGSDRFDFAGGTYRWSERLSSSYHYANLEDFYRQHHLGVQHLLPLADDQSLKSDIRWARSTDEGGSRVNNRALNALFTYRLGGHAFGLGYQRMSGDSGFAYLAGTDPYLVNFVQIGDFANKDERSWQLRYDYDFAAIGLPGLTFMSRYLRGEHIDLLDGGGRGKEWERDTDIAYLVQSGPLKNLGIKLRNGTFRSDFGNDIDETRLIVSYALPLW

OccK4 = molecular target: T8, OccK4 (Pseudomonas aeruginosa, UniProt Q9HWP4); assay: radiolabelled uptake in total membrane vesicles; assay type: biochemical; details: 10 uM 14C-phenylacetate, 45 min; very low specific activity; labelled compound
T8 construct: gene PA4137; pB22, N-terminal hexa-histidine tag; expressed in E. coli BL21 omp8, total membrane vesicles

OccK3 [5] = molecular target: T6, OccK3; assay: radiolabelled uptake in total membrane vesicles; assay type: biochemical; details: 0.5 uM 3H-pyroglutamate, 15 min, 10 mM HEPES pH 7.0, 25 C; labelled compound
OccD1 (P. aeruginosa) = OccD1 (P. aeruginosa) (UniProt P32722)
Chain of OccD1 (P. aeruginosa) (P32722 24-443): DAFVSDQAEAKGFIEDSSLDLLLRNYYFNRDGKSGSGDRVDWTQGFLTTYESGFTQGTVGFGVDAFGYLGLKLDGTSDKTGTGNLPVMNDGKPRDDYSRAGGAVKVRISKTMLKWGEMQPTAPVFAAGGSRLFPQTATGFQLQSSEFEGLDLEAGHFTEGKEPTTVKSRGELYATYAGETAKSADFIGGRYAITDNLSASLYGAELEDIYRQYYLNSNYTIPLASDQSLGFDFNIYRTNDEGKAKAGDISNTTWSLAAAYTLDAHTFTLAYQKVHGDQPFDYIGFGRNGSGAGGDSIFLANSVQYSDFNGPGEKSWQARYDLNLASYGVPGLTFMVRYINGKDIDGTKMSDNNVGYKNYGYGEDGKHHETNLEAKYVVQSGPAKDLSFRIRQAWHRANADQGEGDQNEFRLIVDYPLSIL

T2 sequence (P32722 24-443): as above
T8 sequence (Q9HWP4 entry or part of it): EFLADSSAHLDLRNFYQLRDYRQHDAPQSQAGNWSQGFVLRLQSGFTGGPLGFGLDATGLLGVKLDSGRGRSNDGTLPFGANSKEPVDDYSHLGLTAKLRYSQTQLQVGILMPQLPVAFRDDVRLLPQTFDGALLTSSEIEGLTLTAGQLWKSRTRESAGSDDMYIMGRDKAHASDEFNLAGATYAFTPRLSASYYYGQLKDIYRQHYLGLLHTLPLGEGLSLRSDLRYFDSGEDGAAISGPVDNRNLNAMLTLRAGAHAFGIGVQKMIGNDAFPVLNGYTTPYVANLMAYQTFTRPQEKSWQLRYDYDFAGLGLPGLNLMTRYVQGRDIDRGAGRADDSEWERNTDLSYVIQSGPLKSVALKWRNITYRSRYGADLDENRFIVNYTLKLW

Work on `O=C(O)c1ccc([N+](=O)[O-])cc1` [4-nitrobenzoate] yielded an OccK1 (OccK1 (formerly OpdK)) of 16±3%.

In the case of `N=C(N)NCCC[C@H](N)C(=O)O` [Arginine], the OccD1 (OccD1 (formerly OprD) [1]; self-competition) is reported as 2±1%, the “radiolabelled uptake in total membrane vesicles” value (OccD3 (formerly OpdP)) is reported as “The efficient arginine uptake mediated by OccD3 is noteworthy” and the “radiolabelled uptake in total membrane vesicles” value (OccD2 (formerly OpdC)) is reported as “OccD2 and OccD3, while efficient in arginine uptake”.

In the case of `N[C@@H](Cc1cnc[nH]1)C(=O)O` [Histidine], the OccD1 (OccD1 (formerly OprD) [1]) is reported as 12±2%.

With `NCCCC[C@H](N)C(=O)O` [Lysine] the OccD1 (OccD1 (formerly OprD) [1]) was 3±1%.

`NCCC[C@H](N)C(=O)O` [Ornithine] showed an OccD1 (OccD1 (formerly OprD) [1]) of 1±2%.

For `O=C(O)c1ccccc1` [benzoate], the OccK1 (OccK1 (formerly OpdK); self-competition, error printed as '+') was 1+3 and the OccK2 (OccK2) was 20±6%.

Compound `CCCCCC(=O)O` [caproate] has an OccK1 (OccK1 (formerly OpdK)) of 20±5%.

For `CO/N=C(\C(=O)N[C@@H]1C(=O)N2C(C(=O)O)=C(COC(C)=O)CS[C@H]12)c1csc(N)n1` [cefotaxime], the “% uptake remaining in 10-fold excess” value (OccK3 [2]) was “OccK3-mediated transport is affected only with the cephalosporin cefotaxime”.

`O=C(O)[C@H]1OC(O)[C@H](O)[C@@H](O)[C@@H]1O` (some centres unmarked) [glucuronate] was tested, and the “% radiolabelled uptake remaining” value (OccK2; self-competition) was 3±3%.

`C[C@@H](O)[C@H]1C(=O)N2C(C(=O)O)=C(SCCN=CN)C[C@H]12` [imipenem] was tested, and the “% uptake remaining in 10-fold excess” value (OccD1 (formerly OprD) [3]) was “For OccD1, inhibition of arginine uptake is caused only by imipenem and meropenem”.

In the case of `C[C@@H](O)[C@H]1C(=O)N2C(C(=O)O)=C(S[C@@H]3CN[C@H](C(=O)N(C)C)C3)[C@H](C)[C@H]12` [meropenem], the “% uptake remaining in 10-fold excess” value (OccD1 (formerly OprD) [4]) is reported as “For OccD1, inhibition of arginine uptake is caused only by imipenem and meropenem” and the “% uptake remaining in 10-fold excess” value (OccK7) is reported as “OccK7-mediated transport is lowered very efficiently by meropenem”.

With `O=C(O)Cc1ccccc1` [phenylacetate] the “radiolabelled uptake in total membrane vesicles” value (OccK4) was “OccK4 was indeed the most efficient phenylacetate uptake channel of the proteins tested”.

With `O=C1CC[C@@H](C(=O)O)N1` [pyroglutamate] the “radiolabelled uptake in total membrane vesicles” value (OccK3 [5]) was “the channel that is most efficient in pyroglutamate uptake (OccK3)”, the OccK1 (OccK1 (formerly OpdK)) was 15±1% and the OccK2 (OccK2) was 25±2%.

Arg-Arg dipeptide was tested, and the uptake of radiolabeled arginine by OccD1 in E. coli BL21 omp8 total membrane vesicles in the presence of a 10-fold excess of the unlabeled compound, as a percentage of uptake without it (OccD1 (P. aeruginosa)) was 40%.
